Results: patent publication US20250051301A1, “MUTANT IDH1 AND IDH2 INHIBITOR AND APPLICATION THEREOF” (Betta Pharmaceuticals Co., Ltd, priority 2022, published 2025)

Key:
IDH1^R132H [1] = target: T1, IDH1^R132H (Homo sapiens, UniProt O75874, R132H); experiment: Enzyme activity inhibition assay (fluorescence-based), IDH1 R132H; assay type: biochemical
Protocol: (§1) The inhibitory ability of the compounds on the enzyme activities of IDH1^R132H and IDH2^R140Qwas detected and expressed as the half inhibitory concentration (IC50) value. AG-881 was used as a positive control compound. In this experiment, compounds were screened on enzymes IDH1^R132H and IDH2^R140Q using a fluorescence-based method (initial concentration: 10000 nM, 3-fold dilution, 10 concentrations, and single-well detection). • (1) Preparation of 1×assay buffer. • (2) Preparation of compound concentration gradient: the compounds to be tested were assayed at an initial concentration of 10000 nM, with 3-fold dilution and 10 concentrations, and diluted into 200-fold the final concentration in 100% DMSO solution in a 384-well plate. • (3) 250 nL of DMSO and 250 nL of diluted compounds were transferred to a reaction plate with Echo 550. • (4) IDH2^R140Q enzyme detection: 25 μL of an IDH2^R140Q enzyme solution was added, and the mixture was incubated for 60 minutes; then 25 μL of a substrate solution was added, and the mixture was incubated for 150 minutes; then 25 μL of a detection buffer was added, and the mixture was shaken for 1 minute and incubated for 60 minutes; and finally, Synergy 2, Ex544/Em590 cutoff 590 was used for reading. • (5) IDH1^R132H enzyme detection: 40 μL of a mixture solution of an IDH1^R132H enzyme at the 1.25-fold final concentration and NADPH was added, and the mixture was incubated for 60 minutes; then 10 μL of a substrate solution at the 5-fold final concentration was added, and the mixture was incubated for 90 minutes; then 25 μL of a detection buffer at the 3-fold final concentration was added, and the mixture was shaken for 1 minute. and finally, Synergy 2, Ex544/Em590 cutoff 590 was used for reading. • (8) Inhibition rate calculation, formula: % Inhibition=(RFU_sample−RFU_min)/(RFU_max−RFU_min)*100%, wherein RFU-sample represents the fluorescence intensity of a sample; RFU-min represents the average value of negative control wells and represents the fluorescence intensity with an enzyme; and RFU-max represents the average value of positive control wells and represents the fluorescence intensity without an enzyme. The curve fitting was performed using Graphpad Prism software to obtain IC50 values, and the test results were as shown in table 2.

IDH2^R140Q = target: T2, IDH2^R140Q (Homo sapiens, UniProt P48735, R140Q); experiment: Enzyme activity inhibition assay (fluorescence-based), IDH2 R140Q; assay type: biochemical
T2 sequence (P48735 40-452 R140Q): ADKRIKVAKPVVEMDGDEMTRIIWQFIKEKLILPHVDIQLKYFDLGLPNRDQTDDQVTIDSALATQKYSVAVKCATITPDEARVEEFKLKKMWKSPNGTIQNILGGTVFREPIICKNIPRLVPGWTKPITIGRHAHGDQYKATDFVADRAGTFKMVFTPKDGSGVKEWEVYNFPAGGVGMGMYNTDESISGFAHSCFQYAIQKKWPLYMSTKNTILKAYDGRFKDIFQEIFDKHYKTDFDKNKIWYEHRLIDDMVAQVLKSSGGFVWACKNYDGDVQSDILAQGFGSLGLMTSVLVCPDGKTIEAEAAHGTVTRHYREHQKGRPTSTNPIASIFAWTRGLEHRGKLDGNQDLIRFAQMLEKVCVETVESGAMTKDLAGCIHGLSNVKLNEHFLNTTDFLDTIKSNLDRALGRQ
Protocol: as §1

IDH1^R132H [2] = target: T1, IDH1^R132H; experiment: 2-HG assay in cells (U87 cell line stably transfected with IDH1-R132H); assay type: cell-based; conditions: 72 hours, read-out: 2-HG in medium (IC50, nM) (IDH1^R132H)
Protocol: The compounds were detected for the inhibition of 2-HG production in the U87 cell line stably transfected with IDH1-R132H and the culture supernatant of TF-1 cells stably transfected with IDH2-R140Q. • (1) The cultured cells were collected by centrifugation, then suspended in a cell culture solution, counted, and seeded in a 96-well cell culture plate at 160 μL of cell suspension/well (20000 cells/well for U87-IDH1-R132H; 10000 cells/well for TF-1-IDH2-R140Q). • (2) A 96-well plate dilution was taken, and the compounds to be tested were diluted in a gradient manner in DMSO and a cell culture solution; and then 40 μL of the gradient-diluted compounds to be tested were added to the 96-well plate on which cells have been plated. […] Finally, the plate was cultured in a 37° C. incubator containing 5% CO2. • (3) After the compounds were incubated with the cells for 72 hours, the cell culture plate was taken out and centrifuged at 1500 rpm for 5 minutes, and then 100 μL of the medium supernatant was aspirated for 2-HG detection. • (4) 2-HG detection: the cell supernatant was diluted with purified water, 30 μL of the diluted sample was taken into a 1.5 ml centrifuge tube, and 200 μL of the internal standard solution was added. The mixture was mixed uniformly by vortex and centrifuged at 3200 rpm at 4° C. for 15 minutes. 100 μL of the supernatant solution was diluted with water at a 1:1 ratio and then detected by LC-MS. Analyte Peak Area was used to represent the 2-HG levels. • (5) Inhibition rate calculation, formula: % Inhibition=(1−Analyte Peak Area_sample/Analyte Peak Area_max)*100%, wherein Analyte Peak Area_sample represents the Analyte Peak Area of the sample to which the compound was added; Analyte Peak Area_max represents the average value of Analyte Peak Area of positive control wells (representing the absence of the compound). The curve fitting was performed using Graphpad Prism software to obtain IC50 values, and the test results were as shown in table 2.

mutant IDH1 = conditions: AML or MDS patients carrying IDH1 gene mutations, Phase I; cited from earlier work

T1 sequence (O75874 whole entry R132H): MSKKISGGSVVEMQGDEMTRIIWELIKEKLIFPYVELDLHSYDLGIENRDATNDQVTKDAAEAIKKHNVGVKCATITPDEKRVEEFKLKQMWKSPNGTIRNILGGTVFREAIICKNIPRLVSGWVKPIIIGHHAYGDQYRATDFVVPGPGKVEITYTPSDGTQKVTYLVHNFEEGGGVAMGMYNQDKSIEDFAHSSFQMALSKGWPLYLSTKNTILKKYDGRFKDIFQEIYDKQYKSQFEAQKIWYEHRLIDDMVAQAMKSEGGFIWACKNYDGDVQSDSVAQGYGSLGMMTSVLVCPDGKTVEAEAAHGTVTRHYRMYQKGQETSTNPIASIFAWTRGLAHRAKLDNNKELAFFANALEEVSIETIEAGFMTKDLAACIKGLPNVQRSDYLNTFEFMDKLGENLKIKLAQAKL

| IC50 (IDH1^R132H [1]; class symbols) [nM] | IC50 (IDH2^R140Q; class symbols) [nM] | IC50 (IDH1^R132H [2]; class symbols) [nM] | IC50 (IDH1^R132H [1]; numeric values) [nM] | IC50 (IDH2^R140Q; numeric values) [nM] | IC50 (IDH1^R132H [2]; numeric values) [nM] | Structure (SMILES) | patients in whom a decrease in α-hydroxyglutaric acid (2-HG) levels was observed (mutant IDH1) [%] |
| --- | --- | --- | --- | --- | --- | --- | --- |
| > 1000 | 100 to 1000 | 50 to 100 | – | – | – | Cc1cc(-c2nc(N[C@H](C)C(F)(F)F)nc(N[C@H](C)C(F)(F)F)n2)nc(Cl)c1N [Example 7, 6-(5-amino-6-chloro-4-methylpyridin-2-yl)-N^2,N^4-bis((R)-1,1,1-trifluoropropyl-2-yl)-1,3,5-triazine-2,4-diamine] | – |
| – | – | – | – | – | – | N#Cc1ccnc(N2C(=O)CC[C@H]2C(=O)N(c2cncc(F)c2)[C@H](C(=O)NC2CC(F)(F)C2)c2ccccc2Cl)c1 [AG-120] | 98 |
| 50 to 100 | 50 to 100 | > 1000 | – | – | – | C[C@@H](Nc1nc(N[C@H](C)C(F)(F)F)nc(-c2cc(Cl)c(O)c(Cl)n2)n1)C(F)(F)F [Example 19, 6-(4,6-dichloro-5hydroxylpyridin-2-yl)-N^2,N^4-bis((R)-1,1,1-trifluoroprop-2-yl)-1,3,5-triazine-2,4-diamine] | – |
| – | – | – | 143 | 128 | 26 | C[C@@H](Nc1nc(N[C@H](C)C(F)(F)F)nc(-c2cc(Cl)c(N)c(Cl)n2)n1)C(F)(F)F [Example 1] | – |
| 50 to 100 | 50 to 100 | > 1000 | – | – | – | C[C@@H](Nc1nc(N[C@H](C)C(F)(F)F)nc(-c2cc(F)c(Br)c(Cl)n2)n1)C(F)(F)F [Example 18, 6-(5-bromo-6-chloro-4-fluoropyridin-2-yl)-N^2,N^4-bis((R)-1,1,1-trifluoroprop-2-yl)-1,3,5-triazine-2,4-diamine] | – |
| 100 to 1000 | 100 to 1000 | ≤ 50 | – | – | – | C[C@@H](Nc1nc(N[C@H](C)C(F)(F)F)nc(-c2cc(F)c(N)c(F)n2)n1)C(F)(F)F [Example 23, 6-(5-amino-4,6-difluoropyridin-2-yl)-N^2,N^4-bis((R)-1,1,1-trifluoroprop-2-yl)-1,3,5-triazine-2,4-diamine] | – |
| > 1000 | 100 to 1000 | 100 to 1000 | – | – | – | C[C@@H](Nc1nc(N[C@H](C)C(F)(F)F)nc(-c2cc(C(F)F)c(N)c(Cl)n2)n1)C(F)(F)F [Example 8, 6-(5-amino-6-chloro-4-(difluoromethyl)pyridin-2-yl)-N^2,N^4-bis((R)-1,1,1-trifluoroprop-2-yl)-1,3,5-triazine-2,4-diamine] | – |
